Laboratory results taken from PubChem BioAssay (NCI).
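Dose response: 5 concentrations. Exposure: 48 h. Format: 96-well plates. Endpoint: linear interpolation; highest concentration if not reached. GI50 marks 50% less growth. Definition used: TGI = concentration required for complete inhibition of growth.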 Where a SMILES comes first, the peptide text is derived from it.

Experiments:
Assay in all cases: growth of human tumour cells (NCI), 48 h
A549 NSCLC = system: A549 NSCLC
BT-549 breast = system: BT-549 breast
CAKI-1 renal = system: CAKI-1 renal
EKVX NSCLC = system: EKVX NSCLC
HS 578T breast = system: HS 578T breast
KM12 colon = system: KM12 colon
M14 melanoma = system: M14 melanoma
MDA-MB-231 breast = system: MDA-MB-231 breast
MDA-N = system: MDA-N
NCI-H226 lung = system: NCI-H226 lung
NCI-H23 lung = system: NCI-H23 lung
NCI-H522 lung = system: NCI-H522 lung
RPMI-8226 leukemia = system: RPMI-8226 leukemia
SF-268 CNS = system: SF-268 CNS
UACC-62 melanoma = system: UACC-62 melanoma

| Structure (SMILES) | TGI (A549 NSCLC) [µM] | TGI (BT-549 breast) [µM] | TGI (CAKI-1 renal) [µM] | TGI (EKVX NSCLC) [µM] | TGI (HS 578T breast) [µM] | TGI (KM12 colon) [µM] | TGI (M14 melanoma) [µM] | TGI (MDA-MB-231 breast) [µM] | TGI (MDA-N) [µM] | TGI (NCI-H226 lung) [µM] | TGI (NCI-H23 lung) [µM] | TGI (NCI-H522 lung) [µM] | TGI (RPMI-8226 leukemia) [µM] | TGI (SF-268 CNS) [µM] | TGI (UACC-62 melanoma) [µM] | GI50 (EKVX NSCLC) [µM] |
| --- | --- | --- | --- | --- | --- | --- | --- | --- | --- | --- | --- | --- | --- | --- | --- | --- |
| CN1CCOC1(C)CO (configuration not stated) | > 100 | > 100 | > 100 | > 100 | > 100 | > 100 | > 100 | > 100 | > 100 | > 100 | > 100 | > 100 | > 100 | > 100 | > 100 |  |
| COc1ccc2c3c1O[C@H]1C(O)CCC4(O)[C@@H](C2)NCC[C@]314 (some centres not stated) | > 100 | > 100 | > 100 | > 100 | > 100 | > 100 | > 100 | > 100 | > 100 | > 100 | > 100 | > 100 | > 100 | > 100 | > 100 |  |
| N#CSc1nc[nH]c1C(N)=O | > 100 | > 100 | > 81.6 | > 100 | > 100 | > 100 | > 100 | > 100 | > 100 | > 100 | > 100 | > 100 | 44.7 | > 100 | > 100 |  |
| Cc1cccc(/C=N/NC(=S)NCCc2ccccn2)n1 | > 100 | > 100 | > 100 | > 100 | > 100 | > 100 | 33.6 | > 100 | > 100 | 66.3 | > 100 | > 100 | > 93 | > 100 | 56.7 |  |
| C=CCN1C[C@H](C)N([C@H](c2ccc(C(=O)N(CC)CCO)cc2)c2cccc(OC)c2)C[C@H]1C | > 100 | > 100 | > 100 | > 100 | > 100 | > 100 | > 100 | > 100 | > 100 | > 100 | > 100 | > 100 | > 100 | > 100 | > 100 |  |
| O=C(C(=O)N1CCc2ccccc21)c1c[nH]c2ccccc12 | > 10 | > 10 | > 10 | > 10 | > 10 | > 10 | > 10 | > 10 | > 10 | > 10 | > 10 | > 10 | > 10 | > 10 | > 10 |  |
| C=CCNC1=C2C[C@@H](C)C[C@@H](OC)[C@@H](OC(=O)CCCN)[C@H](C)/C=C(\C)[C@@H](OC(N)=O)[C@H](OC)/C=C\C=C(/C)C(=O)NC(=CC1=O)C2=O | 32.8 | 25.7 | 35.3 | 39.1 | 49.5 | 19.2 | 28.7 | 33.5 | 28.4 | 36.3 | 29.6 | 26.4 | 46.9 | 30.7 | 31.8 |  |
| COc1ccc2c(c1)CN1C(=N2)CSC1c1cc([N+](=O)[O-])ccc1Cl (configuration not stated) | > 100 | > 100 | > 100 | > 100 | > 100 | > 100 | > 100 | > 100 | > 100 | > 100 | > 100 | > 100 | 72.3 | > 100 | 57.5 |  |
| CCOC(=O)C(N)CSC(=O)NC (configuration not stated) | 836 | 346 | 461 | 546 | 782 | 460 | 275 | 340 | 116 | 681 | 469 | 472 | 214 | 443 | 304 |  |
| CC(=O)c1csc2c1C(=O)c1scc(C(C)=O)c1C2=O | 4.19 | 3.18 | 4.1 | 3.36 | 6.48 | 3.53 | 3.1 | 1.43 | 0.319 | 4.14 | 2.92 | 1.75 | 3.14 | 3.44 | 3.56 |  |
| CC(=O)N(C(=O)CC(=O)N/N=C\c1ccc(Br)c(N(CCC#N)CCC#N)c1)c1ccc(Cl)cc1 | > 100 | > 100 | > 100 | > 100 | > 100 | > 100 | > 100 | > 100 | > 100 | > 100 | > 100 |  | > 100 | > 100 | > 100 |  |
| CCN1c2nc3ccccc3nc2N(CC)c2nc3ccccc3nc21 | > 100 | > 100 | > 100 | > 100 | > 100 | > 100 | > 100 | > 100 | > 100 | > 100 | > 100 | > 100 | > 100 | > 100 | > 100 |  |
| CC1=NC(=Cc2ccc(O)cc2)C(=O)N1n1c(-c2ccccc2)nc2ccccc2c1=O | > 100 | > 100 | > 100 | > 100 | > 100 | > 100 | > 100 | > 100 | > 100 | > 100 | > 100 | > 100 | > 100 | > 100 | > 100 |  |
| CC1(C)OCC2OC3(c4nc(C#N)c(N)o4)OC(C)(C)OC3C2O1 (configuration not stated) | > 100 | > 100 | > 100 | > 100 | > 100 | > 100 | > 100 | > 100 | > 100 | > 100 | > 100 | > 100 | > 100 | > 100 | > 100 |  |
| C[C@H]1[C@H](C)CC[C@]2(C)CC[C@]3(C)C(=C[C@@H](O)[C@@H]4[C@@]5(C)[C@H](O)[C@@H](O)[C@H](O)C(C)(C)[C@@H]5CC[C@]43C)[C@H]12 | > 100 | > 100 | > 100 | > 100 | > 100 | > 100 | > 100 | > 100 | > 100 |  | > 100 |  | > 100 | > 100 | > 100 | 0.0221 |
| COC(=O)C1=C(C)NC(C)=C(C(=O)OC)C1c1ccc(/[N+]([O-])=C/c2ccccc2)cc1 | > 100 | 40.1 | 35 | > 100 | > 100 | > 100 | 35.7 | > 100 | > 100 | > 100 | > 100 | 27.9 | > 100 | > 100 | > 100 |  |
| c1cc(-c2ncc(-c3ccc4c(c3)CCCO4)o2)ccn1 | > 100 | 53.3 | > 100 | > 100 | > 100 |  | 94.5 | > 100 | 23.1 | > 100 | 52.2 | 16.7 | 30.4 | 86.3 | 66.3 |  |
| COc1ccnc2c1C(=O)c1nc3ccccc3c3ccnc-2c13 | 2.02 | 1.44 | 0.6 | 2.62 | 6.44 | 0.588 | 0.272 | 3.87 | 0.904 |  | 1.37 | 0.262 | 0.526 |  | 0.504 |  |
| CCN(CC)CCn1nc(N)c2nc3cc(Cl)ccc3nc21 | > 100 | > 100 | > 100 | > 100 | > 100 | > 100 | > 100 | > 100 | > 100 | > 100 | > 100 | > 100 | > 100 | > 100 | > 100 |  |
| COc1ccc2c(c1C)C(=O)C(O)(CC=C(C)C)O2 (configuration not stated) | > 100 | > 100 | > 100 | > 100 | > 100 | > 100 | > 100 | > 100 | > 100 | > 100 | > 100 | > 100 | > 100 | > 100 | > 100 |  |
| COc1ccc(CCNC2=CC(=O)c3ncccc3C2=O)cc1OC | 2.51 | 2.82 | 12.2 | 29.6 | 5.32 | > 75.2 | 2.69 | 3.72 | 2.45 | 3.19 | 2.58 | 8.36 | > 43 | 34.9 | 1.24 |  |
| COc1ccc2c(c1)CCc1c-2[nH]c2ccc(OC)cc12 | > 100 | > 100 | > 100 | > 100 | > 100 | > 100 | > 100 | > 100 | > 100 | > 100 | > 100 | > 100 | > 100 | > 100 | > 100 |  |
| Cn1ccc(C(=O)NCCOCCNC(=O)c2ccn(C)c(=O)c2O)c(O)c1=O | > 100 | > 100 | > 100 |  | > 100 | > 100 |  | > 100 | > 100 | > 100 | > 100 | > 100 | > 100 | > 100 | > 100 |  |
| CNC(=S)N/N=C(C)\C(=N/NC(=S)NC)c1ccccc1 | > 100 | > 100 | > 100 | > 100 | 72.5 | > 100 | > 100 | > 100 | > 100 | > 100 | > 100 | > 100 |  | > 100 | > 100 |  |
| COC(CN(C(=O)c1ccccc1)C1CCC2(SCCS2)c2[nH]c3ccccc3c21)OC (configuration not stated) | > 100 | > 100 | > 100 | > 100 | > 100 | > 100 | > 100 | > 100 | 49 | > 100 | > 100 | 65.4 | > 100 | > 100 |  |  |
| CCC(C)C(NC(=O)C(CCCCN)NC(=O)C(NC(=O)C(CCC(N)=O)NC(=O)C(N)CCCNC(=N)N)C(C)CC)C(=O)NC(Cc1c[nH]c2ccccc12)C(=O)NC(Cc1ccccc1)C(=O)NC(CCC(N)=O)C(=O)NC(CC(N)=O)C(=O)NC(CCCNC(=N)N)C(=O)NC(CCCNC(=N)N)C(=O)NC(CCSC)C(=O)NC(CCCCN)C(=O)NC(Cc1c[nH]c2ccccc12)C(=O)NC(CCCCN)C(=O)NC(CCCCN)C(=O)N1CCCC1C(=O)NC(C)C(=O)NC(CCCCN)C(=O)NC(CCCNC(=N)N)C(=O)NC(CCCCN)C(=O)NC(CC(C)C)C(=O)NC(Cc1ccccc1)C(=O)NCC(=O)O (configuration not stated) (H-RQIKIWFQNRRMKWKKPAKRKLFG-OH; configuration not given here) | > 25 | > 25 | > 25 | > 25 | > 25 | > 25 | > 25 | > 25 | > 25 | > 25 | > 25 | > 25 | 15.1 | > 25 |  |  |
| CCC1OC2C(CC=C(C)C)=C3OC(C)(O)C(C)(CC)C(OC(=O)c4ccccc4)C3=C3OC(=O)C=C1C32 (configuration not stated) | > 100 | 47.7 | > 100 | > 100 | > 100 | > 100 | > 100 | 49.1 | 44.4 |  | > 100 | 47.6 | > 100 | > 100 | > 100 |  |
| CC1=CC(C2/C(=N/O)C=C(C)CC2(C)C)C(O)C(C)(C)C1 (configuration not stated) | 29.6 | 32.8 | 28.2 | 31.4 | > 100 | 31.6 | 28.9 | 31.6 | 31.9 | 33.7 | 32.8 |  | 33.6 | 37.1 | 29.4 |  |
| O=C1/C(=C\c2ccc([N+](=O)[O-])o2)SC2N=C(COc3ccc(Cl)cc3)NN12 (configuration not stated) | 38.4 | 21.8 | 32.9 | 22.3 | > 100 | 28.4 | 13.2 | 15.9 | 14.3 | 41.3 | 35 | 4.81 | > 100 | 13.6 |  |  |
